Where two headings read alike, the source gives them in different places.
Tests used:
Assay type in all cases: cell-based
[1] = test system: SKBr3 (estrogen receptor negative, Her2 over-expressing breast cancer cells); test: Anti-proliferation assay (MTS/PMS, 72 h), SKBr3
Procedure: (§1) Cells were maintained in a 1:1 mixture of Advanced DMEM/F12 (Gibco) supplemented with non-essential amino acids, L-glutamine (2 mM), streptomycin (500 μg/mL), penicillin (100 units/mL), and 10% FBS. Cells were grown to confluence in a humidified atmosphere (37° C., 5% CO2), seeded (2000/well, 100 μL) in 96-well plates, and allowed to attach overnight. Compound at varying concentrations in DMSO (1% DMSO final concentration) was added, and cells were returned to the incubator for 72 h. At 72 h, the number of viable cells was determined using an MTS/PMS cell proliferation kit (Promega) per the manufacturer's instructions. Cells incubated in 1% DMSO were used at 100% proliferation, and values were adjusted accordingly. IC50 values were calculated from separate experiments performed in triplicate using GraphPad Prism.
(§2) The anti-proliferative activity of these compounds is evaluated against two breast cancer cell lines, SKBr3 (estrogen receptor negative, Her2 over-expressing breast cancer cells) and MCF-7 (estrogen receptor positive breast cancer cells).

[2] = test system: MCF-7 (estrogen receptor positive breast cancer cells); test: Anti-proliferation assay (MTS/PMS, 72 h), MCF-7
Procedure: as §1, §2

MDAMB231 = test: Anti-proliferation assay, MDAMB231; conditions: Tri-Neg
Procedure: as §1

DRO81-1 = test: Anti-proliferation assay, DRO81-1; conditions: Thyroid
Procedure: as §1

A-549 = test: Anti-proliferation assay, A-549
Procedure: as §1

PC-3 = test: Anti-proliferation assay, PC-3; conditions: Prostate Cancer
Procedure: as §1

JMAR = test: Anti-proliferation assay, JMAR; conditions: HSNCC
Procedure: as §1

MDA1986 = test: Anti-proliferation assay, MDA1986; conditions: HSNCC
Procedure: as §1

HCT-116 = test: Anti-proliferation assay, HCT-116; conditions: Table 9, non-aryl ureas
Procedure: as §1

HMLE = test: Anti-proliferation assay, HMLE (normal)
Procedure: as §1

MRC5 = test: Anti-proliferation assay, MRC5 (normal)
Procedure: as §1

[3] = Homo sapiens, SK-BR-3, Table 5, alkylether derivatives with cyclic N-substitutions, read-out: SKBr3
[4] = Homo sapiens, MCF7, Table 5, alkylether derivatives with cyclic N-substitutions, read-out: MCF-7
[5] = Homo sapiens, SK-BR-3, Table 8, biphenyl ureas, Breast Cancer, read-out: IC50 SKBr3
[6] = Homo sapiens, MCF7, Table 8, biphenyl ureas, Breast Cancer, read-out: IC50 MCF-3
[7] = Table 3, cycloamine analogues, read-out: SKBr3
[8] = Table 3, cycloamine analogues, read-out: MCF-7
[9] = Table 9, non-aryl ureas, Breast Cancer, read-out: IC50 SKBr3
[10] = Table 9, non-aryl ureas, Breast Cancer, read-out: IC50 MCF-3
[11] = Homo sapiens, MDA-MB-231, Table 6, substituted phenyl ureas
[12] = Homo sapiens, SK-BR-3, Table 6, substituted phenyl ureas, Breast Cancer, read-out: IC50 SKBr3
[13] = Table 6, substituted phenyl ureas
[14] = HMLE, Table 6, substituted phenyl ureas
[15] = Homo sapiens, MRC5, Table 6, substituted phenyl ureas
[16] = Homo sapiens, A549, Table 6, substituted phenyl ureas
[17] = Homo sapiens, PC-3, Table 6, substituted phenyl ureas
[18] = Homo sapiens, MCF7, Table 6, substituted phenyl ureas, Breast Cancer, read-out: IC50 MCF-3
[19] = JMAR, Table 6, substituted phenyl ureas
[20] = MDA1986, Table 6, substituted phenyl ureas

CC(C)=CCc1cc(C(=O)Nc2cc3ccc(OCCCNC4CCCCC4)c(C)c3oc2=O)ccc1O [Compound 70a, N-(7-(3-(cyclohexylamino)propoxy)-8-methyl-2-oxo-2H-chromen-3-yl)-4-hydroxy-3-(3-methylbut-2-en-1-yl)benzamide]
IC50 [1, 3]: 660 ± 120 nM
IC50 [2, 4]: 1070 ± 350 nM

CC(C)=CCc1cc(C(=O)Nc2cc3ccc(OCCCN(C)C4CCCCC4)c(C)c3oc2=O)ccc1O [Compound 70b]
IC50 ([1]; Table 5, alkylether derivatives with cyclic N-substitutions, read-out: SKBr3): 970 ± 30 nM
IC50 ([2]; Table 5, alkylether derivatives with cyclic N-substitutions, read-out: MCF-7): 1080 ± 70 nM

CC(C)=CCc1cc(C(=O)Nc2cc3ccc(OCCCNCc4ccccc4)c(C)c3oc2=O)ccc1O [Compound 70e, N-(7-(3-(benzylamino)propoxy)-8-methyl-2-oxo-2H-chromen-3-yl)-4-hydroxy-3-(3-methylbut-2-en-1-yl)benzamide]
IC50 [1, 3]: 470 ± 160 nM
IC50 [2, 4]: 910 ± 10 nM

CC(C)=CCc1cc(C(=O)Nc2cc3ccc(OCCCN(C)[C@H](C)c4ccccc4)c(C)c3oc2=O)ccc1O [Compound 70f, (R)-4-hydroxy-N-(8-methyl-7-(3-(methyl(1-phenylethyl)amino)propoxy)-2-oxo-2H-chromen-3-yl)-3-(3-methylbut-2-en-1-yl)benzamide]
IC50 [1, 3]: 1000 ± 310 nM
IC50 [2, 4]: 1450 ± 200 nM

CC(C)=CCc1cc(C(=O)Nc2cc3ccc(OCCCNC(C)(C)c4ccccc4)c(C)c3oc2=O)ccc1O [Compound 70g, 4-hydroxy-N-(8-methyl-2-oxo-7-(3-((2-phenylpropan-2-yl)amino)propoxy)-2H-chromen-3-yl)-3-(3-methylbut-2-en-1-yl)benzamide]
IC50 [1, 3]: 960 ± 10 nM
IC50 [2, 4]: 1070 ± 10 nM

CC(C)=CCc1cc(C(=O)Nc2cc3ccc(OCCCNC4C[C@H]5CC[C@@H]4C5)c(C)c3oc2=O)ccc1O (stereo partly drawn) [Compound 70i, N-(7-(3-((1R,4S)-bicyclo[2.2.1]heptan-2-ylamino)propoxy)-8-methyl-2-oxo-2H-chromen-3-yl)-4-hydroxy-3-(3-methylbut-2-en-1-yl)benzamide]
IC50 [1, 3]: 770 ± 130 nM
IC50 [2, 4]: 1030 ± 120 nM

Cc1c(OC2CCN(C)CC2)ccc2cc(NC(=O)Nc3cccc(-c4ccccc4)c3)c(=O)oc12 [H, H, 1-([1,1′-biphenyl]-3-yl)-3-(8-methyl-7-((1-methylpiperidin-4-yl)oxy)-2-oxo-2H-chromen-3-yl)urea]
IC50 [1, 5]: 380 nM
IC50 [2, 6]: 320 nM

COc1cccc(-c2cccc(NC(=O)Nc3cc4ccc(OC5CCN(C)CC5)c(C)c4oc3=O)c2)c1 [H, OMe, 1-(3′-methoxy-[1,1′-biphenyl]-3-yl)-3-(8-methyl-7-((1-methylpiperidin-4-yl)oxy)-2-oxo-2H-chromen-3-yl)urea]
IC50 [1, 5]: 440 nM
IC50 [2, 6]: 370 nM

COc1ccc(NC(=O)Nc2cc3ccc(OC4CCN(C)CC4)c(C)c3oc2=O)cc1-c1ccccc1 [OMe, H, 1-(6-methoxy-[1,1′-biphenyl]-3-yl)-3-(8-methyl-7-((1-methylpiperidin-4-yl)oxy)-2-oxo-2H-chromen-3-yl)urea]
IC50 [1, 5]: 450 nM
IC50 [2, 6]: 930 nM

CC(C)=CCc1cc(C(=O)Nc2cc3ccc(OCCCN4CCN(C)CC4)c(C)c3oc2=O)ccc1O [drawing 143]
IC50 [1, 7]: 1010 ± 30 nM
IC50 [2, 8]: 1200 ± 120 nM

CC(C)=CCc1cc(C(=O)Nc2cc3ccc(OCCCN4CCOCC4)c(C)c3oc2=O)ccc1O [drawing 145]
IC50 [1, 7]: > 50000 nM
IC50 [2, 8]: > 50000 nM

CC(C)=CCc1cc(C(=O)Nc2cc3ccc(OCCCN4CCCCC4)c(C)c3oc2=O)ccc1O [drawing 146]
IC50 [1, 7]: > 50000 nM
IC50 [2, 8]: > 50000 nM

CC(C)=CCc1cc(C(=O)Nc2cc3ccc(OCCCN4CCCC4)c(C)c3oc2=O)ccc1O [drawing 147]
IC50 [1, 7]: 720 ± 10 nM
IC50 [2, 8]: 990 ± 40 nM

Cc1c(OC2CCN(C)CC2)ccc2cc(NC(=O)NC3CCCC3)c(=O)oc12 [drawing 154]
IC50 (MDAMB231; Table 9, non-aryl ureas): 650 nM
IC50 [1, 9]: 2390 ± 350 nM
IC50 (DRO81-1; Table 9, non-aryl ureas): 8800 nM
IC50 (A-549; Table 9, non-aryl ureas): 1240 ± 940 nM
IC50 (PC-3; Table 9, non-aryl ureas): 2160 ± 1170 nM
IC50 [2, 10]: 3830 ± 330 nM
IC50 (JMAR; Table 9, non-aryl ureas): > 25000 nM
IC50 (MDA1986; Table 9, non-aryl ureas): > 25000 nM
IC50 (HCT-116): 7870 ± 7970 nM

Cc1c(OC2CCN(C)CC2)ccc2cc(NC(=O)NC3CCCCC3)c(=O)oc12 [drawing 155]
IC50 (MDAMB231; Table 9, non-aryl ureas): > 25000 nM
IC50 [1, 9]: 3830 ± 330 nM
IC50 (DRO81-1; Table 9, non-aryl ureas): > 25000 nM
IC50 (A-549; Table 9, non-aryl ureas): > 100000 nM
IC50 (PC-3; Table 9, non-aryl ureas): 1670 nM
IC50 [2, 10]: 3840 ± 310 nM
IC50 (JMAR; Table 9, non-aryl ureas): > 25000 nM
IC50 (MDA1986; Table 9, non-aryl ureas): > 25000 nM
IC50 (HCT-116): 9210 ± 6540 nM

Cc1c(OC2CCN(C)CC2)ccc2cc(NC(=O)NC34CC5CC(CC(C5)C3)C4)c(=O)oc12 [drawing 156]
IC50 (MDAMB231; Table 9, non-aryl ureas): 3000 nM
IC50 (DRO81-1; Table 9, non-aryl ureas): 18700 nM
IC50 (A-549; Table 9, non-aryl ureas): 10 ± 10 nM
IC50 (PC-3; Table 9, non-aryl ureas): 19 ± 3 nM
IC50 (JMAR; Table 9, non-aryl ureas): 6200 nM
IC50 (MDA1986; Table 9, non-aryl ureas): 5900 nM
IC50 (HCT-116): 82 ± 35 nM

Cc1c(OC2CCN(C)CC2)ccc2cc(NC(=O)NC3CCCC3)c(=O)oc12 [drawing 167]
IC50 (HMLE; Table 9, non-aryl ureas): > 25000 nM
IC50 (MRC5; Table 9, non-aryl ureas): > 25000 nM

Cc1c(OC2CCN(C)CC2)ccc2cc(NC(=O)NC3CCCCC3)c(=O)oc12 [drawing 168]
IC50 (HMLE; Table 9, non-aryl ureas): > 25000 nM
IC50 (MRC5; Table 9, non-aryl ureas): > 25000 nM

Cc1c(OC2CCN(C)CC2)ccc2cc(NC(=O)NC34CC5CC(CC(C5)C3)C4)c(=O)oc12 [drawing 169]
IC50 (HMLE; Table 9, non-aryl ureas): > 25000 nM
IC50 (MRC5; Table 9, non-aryl ureas): 3800 nM

Cc1c(OC2CCN(C)CC2)ccc2cc(NC(=O)NC(C)(C)C)c(=O)oc12 [drawing 170]
IC50 (HMLE; Table 9, non-aryl ureas): > 25000 nM
IC50 (MRC5; Table 9, non-aryl ureas): 21100 nM

Cc1c(OC2CCN(C)CC2)ccc2cc(NC(=O)N3CCN(C)CC3)c(=O)oc12 [drawing 171]
IC50 (HMLE; Table 9, non-aryl ureas): > 25000 nM
IC50 (MRC5; Table 9, non-aryl ureas): > 25000 nM

Cc1c(OC2CCN(C)CC2)ccc2cc(NC(=O)NCc3ccccc3)c(=O)oc12 [drawing 172]
IC50 (HMLE; Table 9, non-aryl ureas): > 25000 nM
IC50 (MRC5; Table 9, non-aryl ureas): 20900 nM

Cc1c(OC2CCN(C)CC2)ccc2cc(NC(=O)N(C)Cc3ccccc3)c(=O)oc12 [drawing 173]
IC50 (HMLE; Table 9, non-aryl ureas): > 25000 nM
IC50 (MRC5; Table 9, non-aryl ureas): > 25000 nM

Cc1c(OC2CCN(C)CC2)ccc2cc(NC(=O)N(Cc3ccccc3)Cc3ccccc3)c(=O)oc12 [drawing 174]
IC50 (HMLE; Table 9, non-aryl ureas): 7100 nM
IC50 (MRC5; Table 9, non-aryl ureas): 20900 nM

Cc1c(OC2CCN(C)CC2)ccc2cc(NC(=O)NC(c3ccccc3)c3ccccc3)c(=O)oc12 [drawing 175]
IC50 (HMLE; Table 9, non-aryl ureas): 1600 nM
IC50 (MRC5; Table 9, non-aryl ureas): 15500 nM

Cc1c(OC2CCN(C)CC2)ccc2cc(NC(=O)Nc3cccc(C(F)(F)F)c3)c(=O)oc12 [m-CF3, 1-(8-methyl-7-((1-methylpiperidin-4-yl)oxy)-2-oxo-2H-chromen-3-yl)-3-(3-(trifluoromethyl)phenyl)urea]
IC50 (MDAMB231; [11]): 550 nM
IC50 [1, 12]: 260 nM
IC50 (DRO81-1; [13]): 7300 nM
IC50 (HMLE; [14]): 16800 nM
IC50 (MRC5; [15]): 1600 nM
IC50 (A-549; [16]): 46 nM
IC50 (PC-3; [17]): 43 nM
IC50 [2, 18]: 280 nM
IC50 (JMAR; [19]): 1700 nM
IC50 (MDA1986; [20]): 150 nM

COc1cccc(NC(=O)Nc2cc3ccc(OC4CCN(C)CC4)c(C)c3oc2=O)c1 [m-OCH3]
IC50 ([1]; Table 6, substituted phenyl ureas, Breast Cancer, read-out: IC50 SKBr3): 1150 nM
IC50 ([2]; Table 6, substituted phenyl ureas, Breast Cancer, read-out: IC50 MCF-3): 960 nM

Cc1c(OC2CCN(C)CC2)ccc2cc(NC(=O)Nc3cccc(Oc4ccccc4)c3)c(=O)oc12 [m-phenoxyl, 1-(8-methyl-7-((1-methylpiperidin-4-yl)oxy)-2-oxo-2H-chromen-3-yl)-3-(3-phenoxyphenyl)urea]
IC50 (MDAMB231; [11]): 280 nM
IC50 [1, 12]: 190 nM
IC50 (DRO81-1; [13]): 3100 nM
IC50 (HMLE; [14]): 5200 nM
IC50 (MRC5; [15]): 2200 nM
IC50 (A-549; [16]): 1020 nM
IC50 (PC-3; [17]): 2160 nM
IC50 [2, 18]: 280 nM
IC50 (JMAR; [19]): 2400 nM
IC50 (MDA1986; [20]): 570 nM

Cc1c(OC2CCN(C)CC2)ccc2cc(NC(=O)Nc3ccc(O)cc3)c(=O)oc12 [p-OH, 1-(4-hydroxyphenyl)-3-(8-methyl-7-((1-methylpiperidin-4-yl)oxy)-2-oxo-2H-chromen-3-yl)urea]
IC50 [1, 12]: 1380 nM
IC50 [2, 18]: 1340 nM

Source: patent US10030006B2, “Coumarin based Hsp90 inhibitors with urea and ether substituents” (University of Kansas, priority 2013, dated 2018)
